# Measured values reported in US20260256705A1, “LIPID NANOPARTICLE FORMULATIONS FOR VACCINES” (GLOBAL LIFE SCIENCES SOLUTIONS CANADA ULC, priority 2022, published 2026).
# System: Luciferase mRNA
# Assay: Intravenous protein replacement model, Luciferase mRNA LNP
# Format: in vivo, mice
# Details: intravenous 0.1 mg/kg, four hours post administration
# Procedure: Two different LNPs according to embodiments of the invention were injected into mice intravenously at 0.1 mg/kg. The payload was Luciferase·mRNA (Trilink-CLEANCAP™ FLuc mRNA (5 moU), Cat #L-7202). The top row of photographs in FIG. 8 showing fluorescence at four hours post administration was achieved by intravenous administration of LNP comprising PNI 516 30%, DPSC 56%, cholesterol 12.5% and DMG-PEG 1.5%. The bottom row in FIG. 8, which is brighter, was achieved by LNP comprising PNI 580 30%, DSPC 56%, cholesterol 12.5%, and DMG-PEG-1.5%.
smiles,measurement,value
"CCCCCCCCC(CCCCCC)C(=O)O[C@@H]1[C@@H](OC(=O)C(CCCCCC)CCCCCCCC)CO[C@@H]1COC(=O)CCCN(C)C (stereo partly drawn) [PNI 580, (2R,3S,4S)-2-(((4-(dimethylamino)butanoyl)oxy)methyl)tetrahydrofuran-3,4-diyl bis(2-hexyldecanoate)]",protein expression in vivo (fluorescence),slightly more effective
